Calls of active or inactive are those of the source. The rule behind the calls is not given here.
Legend:
[1] = system: DV-90; test: Induction of cell cycle arrest in human DV-90 cells assessed as accumulation of cells at S phase at 0.5 uM for 24 hrs by Click-iT EdU Alexa Fluor 647 flow cytometric assay kit analysis (reference value: 31%); assay type: functional
[2] = system: NCI-H460; test: Induction of cell cycle arrest in human NCI-H460 cells assessed as accumulation of cells at G2/M phase at 1 uM for 24 hrs by Click-iT EdU Alexa Fluor 647 flow cytometric assay kit analysis (reference value: 1%); assay type: functional
[3] = system: NCI-H460; test: Induction of cell cycle arrest in human NCI-H460 cells assessed as accumulation of cells at G2/M phase at 0.1 uM for 24 hrs by Click-iT EdU Alexa Fluor 647 flow cytometric assay kit analysis (reference value: 1%); assay type: functional
[4] = system: DV-90; test: Induction of cell cycle arrest in human DV-90 cells assessed as accumulation of cells at S phase at 0.1 uM for 24 hrs by Click-iT EdU Alexa Fluor 647 flow cytometric assay kit analysis (reference value: 31%); assay type: functional
[5] = system: DV-90; test: Induction of cell cycle arrest in human DV-90 cells assessed as accumulation of cells at S phase at 0.25 uM for 24 hrs by Click-iT EdU Alexa Fluor 647 flow cytometric assay kit analysis (reference value: 31%); assay type: functional
[6] = system: DV-90; test: Induction of cell cycle arrest in human DV-90 cells assessed as accumulation of cells at S phase at 1 uM for 24 hrs by Click-iT EdU Alexa Fluor 647 flow cytometric assay kit analysis (reference value: 31%); assay type: functional
[7] = system: NCI-H460; test: Induction of cell cycle arrest in human NCI-H460 cells assessed as accumulation of cells at G2/M phase at 0.25 uM for 24 hrs by Click-iT EdU Alexa Fluor 647 flow cytometric assay kit analysis (reference value: 1%); assay type: functional
[8] = system: NCI-H460; test: Induction of cell cycle arrest in human NCI-H460 cells assessed as accumulation of cells at G2/M phase at 0.5 uM for 24 hrs by Click-iT EdU Alexa Fluor 647 flow cytometric assay kit analysis (reference value: 1%); assay type: functional
[9] = system: NCI-H460; test: Induction of cell cycle arrest in human NCI-H460 cells assessed as accumulation of cells at S phase at 0.1 uM for 24 hrs by Click-iT EdU Alexa Fluor 647 flow cytometric assay kit analysis (reference value: 56%); assay type: functional
[10] = system: NCI-H460; test: Induction of cell cycle arrest in human NCI-H460 cells assessed as accumulation of cells at G0/G1 phase at 1 uM for 24 hrs by Click-iT EdU Alexa Fluor 647 flow cytometric assay kit analysis (reference value: 43%); assay type: functional
[11] = system: NCI-H460; test: Induction of cell cycle arrest in human NCI-H460 cells assessed as accumulation of cells at G0/G1 phase at 0.1 uM for 24 hrs by Click-iT EdU Alexa Fluor 647 flow cytometric assay kit analysis (reference value: 43%); assay type: functional
[12] = system: NCI-H460; test: Induction of cell cycle arrest in human NCI-H460 cells assessed as accumulation of cells at S phase at 0.5 uM for 24 hrs by Click-iT EdU Alexa Fluor 647 flow cytometric assay kit analysis (reference value: 56%); assay type: functional
[13] = system: NCI-H460; test: Induction of cell cycle arrest in human NCI-H460 cells assessed as accumulation of cells at G0/G1 phase at 0.25 uM for 24 hrs by Click-iT EdU Alexa Fluor 647 flow cytometric assay kit analysis (reference value: 43%); assay type: functional
[14] = system: DV-90; test: Induction of cell cycle arrest in human DV-90 cells assessed as accumulation of cells at G2/M phase at 1 uM for 24 hrs by Click-iT EdU Alexa Fluor 647 flow cytometric assay kit analysis (reference value: 25%); assay type: functional
[15] = system: NCI-H460; test: Induction of cell cycle arrest in human NCI-H460 cells assessed as accumulation of cells at S phase at 1 uM for 24 hrs by Click-iT EdU Alexa Fluor 647 flow cytometric assay kit analysis (reference value: 56%); assay type: functional
[16] = system: NCI-H460; test: Induction of cell cycle arrest in human NCI-H460 cells assessed as accumulation of cells at G0/G1 phase at 0.5 uM for 24 hrs by Click-iT EdU Alexa Fluor 647 flow cytometric assay kit analysis (reference value: 43%); assay type: functional
[17] = system: NCI-H460; test: Induction of cell cycle arrest in human NCI-H460 cells assessed as accumulation of cells at S phase at 0.25 uM for 24 hrs by Click-iT EdU Alexa Fluor 647 flow cytometric assay kit analysis (reference value: 56%); assay type: functional
[18] = system: A549; test: Induction of apoptosis in human A549 cells assessed as necrotic cells at 1 uM in presence of cisplatin by annexin V-PI based flow cytometric analysis (reference value: 1.6%); assay type: functional
[19] = system: DV-90; test: Induction of apoptosis in human DV-90 cells assessed as viable cells at 2.5 uM for 24 hrs by annexin V-PI staining based flow cytometric analysis (reference value: 81.5%); assay type: functional; settings: read-out: Activity
[20] = system: A549; test: Induction of cell cycle arrest in human A549 cells assessed as accumulation of cells at G2/M phase at 0.25 uM for 24 hrs by Click-iT EdU Alexa Fluor 647 flow cytometric assay kit analysis (reference value: 3%); assay type: functional
[21] = system: NCI-H1373; test: Downregulation of FLIP mRNA expression level in human NCI-H1373 cells at 0.1 to 1 uM for 24 hrs by qRT-PCR analysis; assay type: functional, cell-based; settings: dose 0.1-1 µM
[22] = system: NCI-H1373; test: Induction of TRAIL dependent apoptosis in human NCI-H1373 cells assessed as viable cells at 1 uM in presence of […] by annexin V-PI staining based flow cytometric analysis (reference value: 87.6%); assay type: functional; settings: read-out: Activity
[23] = system: DV-90; test: Induction of cell cycle arrest in human DV-90 cells assessed as accumulation of cells at G2/M phase at 0.25 uM for 24 hrs by Click-iT EdU Alexa Fluor 647 flow cytometric assay kit analysis (reference value: 24%); assay type: functional
[24] = system: A549; test: Induction of apoptosis in human A549 cells assessed as early apoptotic cells at 1 uM in presence of cisplatin by annexin V-PI based flow cytometric analysis (reference value: 0.2%); assay type: functional
[25] = system: NCI-H441; test: Downregulation of XIAP mRNA expression level in human NCI-H441 cells at 0.1 to 1 uM for 24 hrs by qRT-PCR analysis; assay type: functional, cell-based; settings: dose 0.1-1 µM
[26] = system: DV-90; test: Downregulation of XIAP protein expression level in human DV-90 cells at 1 uM for 24 hrs by […] analysis; assay type: functional, cell-based
[27] = system: NCI-H460; test: Induction of apoptosis in human NCI-H460 cells assessed as viable cells at 2.5 uM for 24 hrs by annexin V-PI staining based flow cytometric analysis (reference value: 94%); assay type: functional; settings: read-out: Activity
[28] = system: A549; test: Induction of cell cycle arrest in human A549 cells assessed as accumulation of cells at G2/M phase at 1 uM for 24 hrs by Click-iT EdU Alexa Fluor 647 flow cytometric assay kit analysis (reference value: 3%); assay type: functional
[29] = system: A549; test: Induction of cell cycle arrest in human A549 cells assessed as accumulation of cells at G0/G1 phase at 0.1 uM for 24 hrs by Click-iT EdU Alexa Fluor 647 flow cytometric assay kit analysis (reference value: 61%); assay type: functional
[30] = system: A549; test: Induction of apoptosis in human A549 cells assessed as early apoptotic cells at 0.5 uM for 24 hrs by annexin V-PI staining based flow cytometric analysis (reference value: 0.4%); assay type: functional

Structure (SMILES)	Activity [1] [%]	Activity [2] [%]	Activity [3] [%]	Activity [4] [%]	Activity [5] [%]	Activity [6] [%]	Activity [7] [%]	Activity [8] [%]	Activity [9] [%]	Activity [10] [%]	Activity [11] [%]	Activity [12] [%]	Activity [13] [%]	Activity [15] [%]	Activity [16] [%]	Activity [17] [%]	other results
Cc1sc2c(c1C)C(c1ccc(Cl)cc1)=N[C@@H](CC(=O)Nc1ccc(O)cc1)c1nnc(C)n1-2 [BIRABRESIB]	17	1	1	20	21	17	1	3	–	–	–	–	–	–	–	–	–
CCNC(=O)C[C@@H]1N=C(c2ccc(Cl)cc2)c2cc(OC)ccc2-n2c(C)nnc21 [MOLIBRESIB]	–	1	1	–	–	–	1	1	53	51	46	49	45	47	49	54	Activity [14]: 27%
Cc1sc2c(c1C)C(c1ccc(Cl)cc1)=N[C@@H](CC(=O)OC(C)(C)C)c1nnc(C)n1-2	18	1	1	27	24	15	1	1	55	45	44	54	41	54	45	57	Activity [18]: 10.3%; viability at 2.5 µM [19]: 50.7%; Activity [20]: 3%; Activity [21]: Active; viability at 1 µM [22]: 17.8%; Activity [23]: 31%; Activity [24]: 2.2%; Activity [25]: Active; Activity [26]: Active; viability at 2.5 µM [27]: 90.4%; Activity [28]: 4%; Activity [29]: 61%; Activity [30]: 0.1%

From ChEMBL document CHEMBL5712891, “Inhibition of BET bromodomain-dependent XIAP and FLIP expression sensitizes KRAS-mutated NSCLC to pro-apoptotic agents” (Cell Death Dis, 2016)
